Measurements reported in patent publication US12146004B2, “Polymyxin compounds and uses thereof” (priority 2014, dated 2024).
≈ marks a conversion by molar mass, not a printed value. Like-named read-outs stand apart in the source and are kept apart here. Numbered stars: 1 amine (or outer) side, 2 acyl side, 3 side chain; on linkers, the order of the positions; unused ones are H or OH. Bridge positions count the residues as written; N and C are the ends. Square brackets hold non-standard residues; d marks the D form. Peptide text beside a SMILES is read from it. * marks the point of attachment. ξ: configuration not given here. X11 = O=C([C@@H](Cc1ccc(-c2ccncc2)cc1)N[*:1])[*:2]; dBip = N[C@H](Cc1ccc(-c2ccccc2)cc1)C(=O)O; Octanoyl(6-Me) = CCC(C)CCCCC(=O)*; X3 = CCCCCCCCN1CCNC[C@H]1C(=O)*; Thr(3ξ) = CC(O)[C@H](N)C(=O)O; Dab = NCC[C@H](N)C(=O)O

Key:
Assay type in all cases: cell-based
HK-2 cells = test system: HK-2 cells
Text: Values are reported relative to Polymyxin B.

Acinetobacter baumannii = test system: Acinetobacter baumannii
Method in brief: (§1)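 Strain panels of up to nine per species, with resistant and Polymyxin-tolerant strains included, were used for susceptibility testing; read-out was MIC (μg/mL).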

Klebsiella pneumoniae = test system: Klebsiella pneumoniae
Method in brief: as §1

Pseudomonas aeruginosa = test system: Pseudomonas aeruginosa
Method in brief: as §1

Escherichia coli = test system: Escherichia coli
Method in brief: as §1

Structure (SMILES): CC(C)C[C@@H]1NC(=O)[C@@H](CC2CCCCC2)NC(=O)[C@H](CCN)NC(=O)[C@@H](NC(=O)[C@H](CCN)NC(=O)[C@@H](NC(=O)CC(CN)Cc2ccccc2)[C@@H](C)O)CCNC(=O)[C@H]([C@@H](C)O)NC(=O)[C@H](CCN)NC(=O)[C@H](CCN)NC1=O (single isomer, unassigned; isomer 2) [Example 67, 4-amino-3-benzylbutanoyl polymyxin [D-cyclohexylalanine]-6 nonapeptide isomer 2]
- HK-2 IC50 (HK-2 cells; HK-2 cells): 60 µg/mL
- MIC A. baumanii 053 (Acinetobacter baumannii; strain 053): 64 µg/mL (≈ 55.9 µM)
- MIC A. baumanii 056 (Acinetobacter baumannii; strain 056): 16 µg/mL (≈ 14 µM)
- MIC A. baumanii ATCC BAA-747 (Acinetobacter baumannii; strain ATCC BAA-747): 0.25 µg/mL (≈ 0.218 µM)
- MIC A. baumanii NCTC 13424 (Acinetobacter baumannii; strain NCTC 13424): 0.25 µg/mL (≈ 0.218 µM)
- MIC K. pneumoniae 063 (Klebsiella pneumoniae; strain 063): 32 µg/mL (≈ 28 µM)
- MIC K. pneumoniae 065 (Klebsiella pneumoniae; strain 065): 1 µg/mL (≈ 0.874 µM)
- MIC K. pneumoniae ATCC 13882 (Klebsiella pneumoniae; strain ATCC 13882): 0.25 µg/mL (≈ 0.218 µM)
- MIC P. aeruginosa 068 (Pseudomonas aeruginosa; strain 068): 8 µg/mL (≈ 6.99 µM)
- MIC P. aeruginosa 070 (Pseudomonas aeruginosa; strain 070): 16 µg/mL (≈ 14 µM)
- MIC P. aeruginosa ATCC 27853 (Pseudomonas aeruginosa; strain ATCC 27853): 0.25 µg/mL (≈ 0.218 µM)
- MIC P. aeruginosa CCUG 59347 (Pseudomonas aeruginosa; strain CCUG 59347): 0.25 µg/mL (≈ 0.218 µM)
- MIC E. coli 058 (Escherichia coli; strain 058): 4 µg/mL (≈ 3.5 µM)
- MIC E. coli 061 (Escherichia coli; strain 061): 16 µg/mL (≈ 14 µM)
- MIC E. coli ATCC 25922 (Escherichia coli; strain ATCC 25922): 0.125 µg/mL (≈ 0.109 µM)
- MIC E. coli NCTC 9001 (Escherichia coli; strain NCTC 9001): 0.06 µg/mL (≈ 0.0524 µM)

Structure (SMILES): CCC(C)CCCCC(=O)N[C@@H](CCN)C(=O)N[C@H](C(=O)N[C@@H](CCN)C(=O)N[C@H]1CCNC(=O)[C@H]([C@@H](C)O)NC(=O)[C@H](CCN)NC(=O)[C@H](CCN)NC(=O)[C@H](CC(C)C)NC(=O)[C@@H](Cc2ccc(-c3ccncc3)cc2)NC(=O)[C@H](CCN)NC1=O)C(C)O (some centres unmarked) [Example 1] ({Octanoyl(6-Me)}-[Dab][Thr(3ξ)][Dab][Dab][Dab][X11]L[Dab][Dab]T; lactam 4-C)
- HK-2 IC50 (HK-2 cells): 7 µg/mL
- MIC A. baumanii 053 (Acinetobacter baumannii): >32 µg/mL
- MIC A. baumanii 056 (Acinetobacter baumannii): >32 µg/mL
- MIC A. baumanii ATCC BAA-747 (Acinetobacter baumannii): 1 µg/mL (≈ 0.781 µM)
- MIC K. pneumoniae 062 (Klebsiella pneumoniae): >64 µg/mL
- MIC K. pneumoniae 063 (Klebsiella pneumoniae): >64 µg/mL
- MIC K. pneumoniae 064 (Klebsiella pneumoniae): 32 µg/mL (≈ 25 µM)
- MIC K. pneumoniae 066 (Klebsiella pneumoniae): 32 µg/mL (≈ 25 µM)
- MIC K. pneumoniae 067 (Klebsiella pneumoniae): >32 µg/mL
- MIC K. pneumoniae ATCC 4352 (Klebsiella pneumoniae): 1 µg/mL (≈ 0.781 µM)
- MIC P. aeruginosa 068 (Pseudomonas aeruginosa): 32 µg/mL (≈ 25 µM)
- MIC P. aeruginosa 070 (Pseudomonas aeruginosa): >32 µg/mL
- MIC P. aeruginosa ATCC 27853 (Pseudomonas aeruginosa): 1 µg/mL (≈ 0.781 µM)
- MIC E. coli 060 (Escherichia coli): 8 µg/mL (≈ 6.25 µM)
- MIC E. coli 061 (Escherichia coli): 32 µg/mL (≈ 25 µM)
- MIC E. coli ATCC 25922 (Escherichia coli): 1 µg/mL (≈ 0.781 µM)

Structure (SMILES): CCCCCCCCN1CCNC[C@H]1C(=O)N[C@H](C(=O)N[C@@H](CCN)C(=O)N[C@H]1CCNC(=O)[C@H]([C@@H](C)O)NC(=O)[C@H](CCN)NC(=O)[C@H](CCN)NC(=O)[C@H](CC(C)C)NC(=O)[C@@H](Cc2ccc(-c3ccccc3)cc2)NC(=O)[C@H](CCN)NC1=O)C(C)O (some centres unmarked) [Example 6] (X3-[Thr(3ξ)][Dab][Dab][Dab][dBip]L[Dab][Dab]T; lactam 3-C)
- HK-2 IC50 (HK-2 cells): 3 µg/mL
- MIC A. baumanii 053 (Acinetobacter baumannii): 8 µg/mL (≈ 6.33 µM)
- MIC A. baumanii 056 (Acinetobacter baumannii): 4 µg/mL (≈ 3.17 µM)
- MIC A. baumanii ATCC BAA-747 (Acinetobacter baumannii): 1 µg/mL (≈ 0.791 µM)
- MIC K. pneumoniae 062 (Klebsiella pneumoniae): 4 µg/mL (≈ 3.17 µM)
- MIC K. pneumoniae 063 (Klebsiella pneumoniae): 4 µg/mL (≈ 3.17 µM)
- MIC K. pneumoniae 064 (Klebsiella pneumoniae): 2 µg/mL (≈ 1.58 µM)
- MIC K. pneumoniae 065 (Klebsiella pneumoniae): 1 µg/mL (≈ 0.791 µM)
- MIC K. pneumoniae 066 (Klebsiella pneumoniae): 0.5 µg/mL (≈ 0.396 µM)
- MIC K. pneumoniae 067 (Klebsiella pneumoniae): 4 µg/mL (≈ 3.17 µM)
- MIC K. pneumoniae ATCC 4352 (Klebsiella pneumoniae): 1 µg/mL (≈ 0.791 µM)
- MIC P. aeruginosa 068 (Pseudomonas aeruginosa): 2 µg/mL (≈ 1.58 µM)
- MIC P. aeruginosa 070 (Pseudomonas aeruginosa): 2 µg/mL (≈ 1.58 µM)
- MIC E. coli 058 (Escherichia coli): 1 µg/mL (≈ 0.791 µM)
- MIC E. coli 059 (Escherichia coli): 0.5 µg/mL (≈ 0.396 µM)
- MIC E. coli 060 (Escherichia coli): 1 µg/mL (≈ 0.791 µM)
- MIC E. coli 061 (Escherichia coli): 2 µg/mL (≈ 1.58 µM)
- MIC E. coli ATCC 25922 (Escherichia coli): 1 µg/mL (≈ 0.791 µM)
